# No end group written: not given here.
# Experiments:
# [1] = system: Native or MDA-modified peptides 210 and 240; experiment: Determination of antibody titers against peptide (serum IgG/IgM ELISA); assay type: in vivo, mice; conditions: Example 1; mouse serum 1:50, 405 nm
# Description: (§1) Male ApoE −/− mice (B&M, RY, DENMARK, 11 week old) were implanted subcutaneously with mini-osmotic pumps (ALZET1002, DURECT CORPORATION) diffusing PBS or 10 μg of P210, MDA-P210 or P240 per day and for 14 day, at a rate of 0.25 μl/h.
# Native or MDA-modified peptides 210 and 240 were used for coating (10 μg/ml of each in PBS pH 7.4) microtiter plates (Nunc MaxiSorp, Nunc, Roskilde, Denmark) in an overnight incubation at 4° C. Coated plates were washed with PBS with 0.05% Tween-20 and thereafter blocked with SuperBlock in Tris-buffered saline (TBS, Pierce) for 5 minutes at room temperature followed by an incubation of mouse serum diluted 1:50 in TBS-0.05% Tween-20 for 2 hours at room temperature and overnight at 4° C. After rinsing, depositions were detected by using biotinylated goat anti-mouse IgM or IgG antibodies (JACKSON IMMUNORESEARCH, West Grove, Pa.) that were incubated for 2 hours at room temperature. The plates were washed and bound biotinylated antibodies were detected by alkaline phosphatase-conjugated streptavidin (SIGMA). The color reaction was developed using phosphatase substrate kit (Pierce). The absorbency at 405 nm was measured after 1 hour of incubation at room temperature. Mean values were calculated after subtraction of background absorbance.
# Male ApoE −/− mice = experiment: Atherosclerotic lesion size (morphometric analysis) in apoE-/- mice after pump delivery of peptide; assay type: in vivo; conditions: Example 2; apoE null mice; result in words
# Description: as §1
# Then, the mice are kept for another 6 weeks and killed at 19 weeks of age.
# Total Plasma and HDL cholesterol were measured with a commercially available cholesterol kit (SIGMA) according to the manufacturer's instructions. Morphometric and immuno-histochemical studies were performed in the aortic sinus and in the thoracic aorta (spanning from the brachiocephalic artery to the renal arteries). Collagen fibers were stained with Sirius red. Immuno-histochemical analysis were then performed. The following primary antibodies were used: MOMA-2 (BIOSOURCE INTERNATIONAL) as a specific marker for macrophages; anti-mouse CD3− (SANTA CRUZ); anti-smooth muscle actin, alkaline phosphatase conjugate, clone 1A4 (SIGMA); and anti-IL-10 antibody (SANTA CRUZ). Morphometric analysis was performed with an automated image processor (HISTOLAB, MICROVISION).
# Male apoE−/− mice (B&M, RY, DENMARK, 11 week old) were implanted subcutaneously with mini-osmotic pumps (ALZET1002, DURECT CORPORATION) diffusing phosphate buffer saline (PBS) as control or 10 μg per day of P210, MDA-P210 or P240, for 14 days, at a rate of […]. An additional group of mice receiving ovalbumin (OVA) peptide (323-339) served as control.
# Then, the mice were kept for another 6 or 10 weeks and killed at 19 or 23 weeks of age.
# Male apoE−/− mice (11-week old) were implanted subcutaneously with mini-osmotic pumps (ALZET1002) diffusing phosphate buffer saline (PBS), as control, or 10 μg per day of P210, MDA-P210 or P240, for 14 days at a rate of 0.25 μl/h. An additional group of mice receiving ovalbumin (OVA) peptide (323-339) served as control. Mice were kept for another 6 weeks and killed at 19 weeks of age. […]
# CD4+ cells = experiment: Cell proliferation assay: CD4+ cells with CD11c+ dendritic cells from treated mice, [3H]-thymidine; assay type: cell-based; conditions: Example 1; anti-CD3 3 μg/ml, 72 hours; PBS control 20 000 cpm
# Source text: T cells were purified from spleen or from draining lymph nodes by negative selection with anti-CD11b (M1/70), anti B220, anti-CD8 and anti-NK cells (DX5) followed by depletion with a mixture of magnetic beads coated with anti-rat Ig (DYNAL). CD11c+ dendritic cells were purified by positive selection with anti-CD11c using directly conjugated anti-CD11c beads (clone N418; MILTENYI BIOTEC).
# For the cell proliferation assay, purified CD4+ cells (50 000) were mixed with CD11c+ cells (10 000) and anti-CD3 antibodies (3 μg/ml) for 72 hours. [3H]-Thymidine (1 μCi; PERKIN ELMER) was added for the last 18 hours of cell culture.
substance,measurement,setting,value
MDA-P210: Malondialdehyde (MDA)-modified human apoB-100 derived peptide; native P210 modified by 0.5 mol/L MDA for 3 hours at 37° C. (KTTKQSFDLSVKAQYKKNKH; not fully specified),IgG against MDA-P210,[1],0.83±0.28 absorbance units
same,IgG against MDA-P240,[1],0.041±0.007 absorbance units
same,IgG against P210,[1],0.51±0.07 absorbance units
same,IgM against MDA-P210,[1],1.30±0.13 absorbance units
same,IgM against MDA-P240,[1],1.24±0.40 absorbance units
same,IgM against P210,[1],0.55±0.25 absorbance units
same,"Effect of continuous administration on atherosclerotic plaques, associated inflammation and plaque composition",Male ApoE −/− mice,diminution of the atherosclerotic plaques and of associated inflammation
same,Proliferation of CD4+ cells from control mice in the presence of CD11c+ cells from treated mice,CD4+ cells,9500 cpm
"KTTKQSFDLSVKAQYKKNKH (peptide derived from apolipoprotein B) [P210, Human apoB-100 derived peptide, amino acids 3136 to 3155]",IgG against MDA-P210,[1],1.45±0.49 absorbance units
same,IgG against MDA-P240,[1],0.080±0.038 absorbance units
same,IgG against P210,[1],0.81±0.22 absorbance units
same,IgM against MDA-P210,[1],1.38±0.04 absorbance units
same,IgM against MDA-P240,[1],1.80±0.41 absorbance units
same,IgM against P210,[1],1.17±0.22 absorbance units
same,"Effect of continuous administration on atherosclerotic plaques, associated inflammation and plaque composition",Male ApoE −/− mice,diminution of the atherosclerotic plaques and of associated inflammation
"ISQAVHAAHAEINEAGR (peptide derived from ovalbumin) [Control: chicken ovalbumin (OVA) peptide, amino acids 323 to 339, reference compound]","Effect of continuous administration on atherosclerotic plaques, associated inflammation and plaque composition",Male ApoE −/− mice,No significant modification
"FPDLGQEVALNANTKNQKIR (peptide derived from apolipoprotein B) [P240, Human apoB-100 derived peptide, amino acids 3586 to 3605]",IgG against MDA-P210,[1],0.62±0.11 absorbance units
same,IgG against MDA-P240,[1],0.037±0.007 absorbance units
same,IgG against P210,[1],0.47±0.09 absorbance units
same,IgM against MDA-P210,[1],0.79±0.45 absorbance units
same,IgM against MDA-P240,[1],1.34±0.52 absorbance units
same,IgM against P210,[1],0.79±0.45 absorbance units
